Test results: patent US10744213B2, “Fluorescent compounds for imaging of blood vessels and blood flow, and an in vivo screen for pro- and anti-angiogenic agents” (COLOSSUS BIOPHARMA CONSULTANTS COMPANY, LIMITED, priority 2017, dated 2020)

How the values were obtained:
[1] = Acute toxicity on zebrafish over a five-day regimen; parameters: species or system zebrafish (Danio rerio); settings: in vivo, other: added to the fish culture (immersion), calculated using the Benchmark Dose Software (BMDS)
zebrafish blood vessels = experiment: Staining of zebrafish blood vessels; parameters: species or system zebrafish (Danio rerio); settings: in vivo
Excerpt: (§1) Another embodiment of the invention comprises contacting live zebrafish, wild type or not, at various development stages, with the fluorescent compounds. To achieve the contact, the fluorescent compounds can in general be formulated as a solution, in DMSO for instance, and added to the fish culture. […] The fluorescent compounds enter the zebrafish vascular system as a result of such treatment, causing the blood vessels to fluoresce upon excitation and the fluorescence image of the blood vessels and the motion of blood flow can be observed with a microscope. The images can also be recorded with an image capturing device such as a camera. […] Further advantage of the current invention, which is in significant contrast to the transgenic zebrafish models, resides in the fact that the fluorescent compounds are exogenously administered and can be allowed to clear out of the test animals when so desired (see Figure I), such as when further procedures are required with the test animals and the fluorescence may interfere. […]

cow blood serum = experiment: Native PAGE of blood serum stained with the fluorescent compound (UV, fluorescence); assay type: binding; settings: 25 μM stain
[2] = system: goldfish (Carassius auratus) blood serum; experiment: as above; assay type: binding; settings: 25 μM stain
zebrafish = assay type: in vivo, zebrafish (Danio rerio); settings: after staining at 10 μM for 1 hour, continuous culture in RO water
Excerpt: as §1

CCOC(=O)c1ccc(C2CC(c3cc4cc(OC)ccc4oc3=O)=NN2c2ccc(C(=O)OCC)cc2)cc1 (centres unmarked) [Diethyl 4,4′-(3-(6-methoxy-2-oxo-2H-chromen-3-yl)-4,5-dihydro-1H-pyrazole-1,5-diyl)dibenzoate]
LC50 at 5 days [1]: 272 µM | Regular working concentration for staining zebrafish blood vessels (zebrafish blood vessels): 10 to 25 µM

CCOC(=O)c1cn(-c2ccccc2)nc1-c1ccccc1 [Ethyl 1,3-diphenyl-1H-pyrazole-4-carboxylate]
Staining of serum bands on Native PAGE (cow blood serum): UV as well as matching blue fluorescence | Staining of serum bands on Native PAGE [2]: UV as well as matching blue fluorescence

CCOC(=O)c1ccc(N2N=C(c3cc4cc(OC)ccc4oc3=O)CC2c2ccccc2)cc1 (centres unmarked) [Ethyl 4-(3-(6-methoxy-2-oxo-2H-chromen-3-yl)-5-phenyl-4,5-dihydro-1H-pyrazol-1-yl)benzoate]
Clearance of the dye (fading of green fluorescence) (zebrafish): incremental fading of green fluorescence over time within the first 6 hours
